Measured values taken from ChEMBL document CHEMBL1201862, “PubChem BioAssay data set” (2004).
Calls of active or inactive are those of the source.

What was measured:
Phospholipase D2 = Phospholipase D2 (Homo sapiens, UniProt O14939); experiment: PLD2 inhibitor potency in cells, dose response (AID 602147); format: functional;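 note: cellular assay in HEK293 cells overexpressing GFP-tagged PLD2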
Phospholipase D1 = molecular target: T1, Phospholipase D1 (Homo sapiens, UniProt Q13393); experiment: PLD1 inhibitor potency in cells, dose response (AID 602151); format: functional;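 note: cellular PLD1 assay in Calu-1 cells stimulated with PMA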
T1 sequence (Q13393 whole entry): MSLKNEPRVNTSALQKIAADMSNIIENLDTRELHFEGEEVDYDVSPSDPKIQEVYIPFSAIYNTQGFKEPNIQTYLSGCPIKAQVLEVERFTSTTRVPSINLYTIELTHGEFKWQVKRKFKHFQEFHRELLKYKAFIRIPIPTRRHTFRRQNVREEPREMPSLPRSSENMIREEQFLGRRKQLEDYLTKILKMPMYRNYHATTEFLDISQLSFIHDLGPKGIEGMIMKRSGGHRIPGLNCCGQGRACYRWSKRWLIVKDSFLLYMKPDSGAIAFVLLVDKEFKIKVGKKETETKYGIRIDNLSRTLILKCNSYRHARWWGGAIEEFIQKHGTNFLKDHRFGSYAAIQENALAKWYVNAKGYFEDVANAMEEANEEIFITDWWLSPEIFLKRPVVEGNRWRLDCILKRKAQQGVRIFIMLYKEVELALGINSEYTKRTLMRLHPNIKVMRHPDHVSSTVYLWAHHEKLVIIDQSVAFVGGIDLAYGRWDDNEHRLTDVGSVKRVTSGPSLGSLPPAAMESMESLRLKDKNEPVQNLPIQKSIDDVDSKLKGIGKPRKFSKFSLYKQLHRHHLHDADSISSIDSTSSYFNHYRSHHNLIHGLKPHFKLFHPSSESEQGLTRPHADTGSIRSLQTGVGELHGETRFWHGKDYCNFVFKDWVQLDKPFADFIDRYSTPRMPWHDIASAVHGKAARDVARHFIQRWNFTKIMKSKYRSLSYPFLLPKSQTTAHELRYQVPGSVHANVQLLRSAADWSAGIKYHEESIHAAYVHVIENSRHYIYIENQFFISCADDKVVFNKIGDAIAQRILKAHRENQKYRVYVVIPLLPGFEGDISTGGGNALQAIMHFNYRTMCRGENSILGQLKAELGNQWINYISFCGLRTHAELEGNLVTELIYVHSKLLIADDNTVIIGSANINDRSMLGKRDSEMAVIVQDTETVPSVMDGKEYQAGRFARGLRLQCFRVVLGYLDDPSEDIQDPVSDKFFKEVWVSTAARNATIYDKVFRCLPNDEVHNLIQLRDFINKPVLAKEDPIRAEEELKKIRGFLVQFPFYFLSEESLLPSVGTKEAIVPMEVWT

[1] = AlphaScreen signal interference compounds, dose response, artefact control for ARNT-TACC3 interaction inhibitor project, biochemical, luminescence, cherry-pick (AID 651705); format: functional;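 note: AlphaScreen bead proximity signal that flags compounds interfering with the detection technology; potency reflects signal decrease which marks the compound as an assay artifact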
Vero = Vero cell cytotoxicity, cytotoxicity control for flavivirus capping enzyme inhibitors (AID 588742); format: functional; settings: Chlorocebus sabaeus
[2] = THP-1 cell cytotoxicity, dose response, cytotoxicity control for Vif-APOBEC3G degradation inhibitor project, THP-1 cells (AID 1117359); format: functional; settings: Human immunodeficiency virus 1, THP-1
[3] = test system: Streptococcus sp. 'group A'; experiment: growth inhibition of control SK(-) GAS strain, dose response, counter-screen for streptokinase expression inhibitor project, luminescence, kanamycin, BacTiterGlo, confirmation (AID 1900); format: functional, organism-based
Streptococcus = experiment: Group A Streptococcus viability loss, dose response, counter-screen for streptokinase expression inhibitor project, luminescence, BacTiterGlo (AID 1915); format: functional, organism-based;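 note: potency for reduction of bacterial viability or growth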
INS1 = experiment: beta cell apoptosis inhibitors, cytokine rescue, dose response, luminescence, retest (AID 449756); format: functional, cell-based; settings: Rattus norvegicus;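 note: cell death triggered by IL-1 beta plus TNF-alpha plus IFN-gamma mixture; protective hits raise ATP signal compared with cytokine alone wells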
[4] = molecular target: T2, Rac GTPase-activating protein 1 (Homo sapiens, UniProt Q9H0H5); experiment: MgcRacGAP GTPase-activating activity inhibitors, confirmation, biochemical, ADP Hunter fluorescence, primary and confirmatory (AID 624330); format: functional
T2 sequence (Q9H0H5 whole entry): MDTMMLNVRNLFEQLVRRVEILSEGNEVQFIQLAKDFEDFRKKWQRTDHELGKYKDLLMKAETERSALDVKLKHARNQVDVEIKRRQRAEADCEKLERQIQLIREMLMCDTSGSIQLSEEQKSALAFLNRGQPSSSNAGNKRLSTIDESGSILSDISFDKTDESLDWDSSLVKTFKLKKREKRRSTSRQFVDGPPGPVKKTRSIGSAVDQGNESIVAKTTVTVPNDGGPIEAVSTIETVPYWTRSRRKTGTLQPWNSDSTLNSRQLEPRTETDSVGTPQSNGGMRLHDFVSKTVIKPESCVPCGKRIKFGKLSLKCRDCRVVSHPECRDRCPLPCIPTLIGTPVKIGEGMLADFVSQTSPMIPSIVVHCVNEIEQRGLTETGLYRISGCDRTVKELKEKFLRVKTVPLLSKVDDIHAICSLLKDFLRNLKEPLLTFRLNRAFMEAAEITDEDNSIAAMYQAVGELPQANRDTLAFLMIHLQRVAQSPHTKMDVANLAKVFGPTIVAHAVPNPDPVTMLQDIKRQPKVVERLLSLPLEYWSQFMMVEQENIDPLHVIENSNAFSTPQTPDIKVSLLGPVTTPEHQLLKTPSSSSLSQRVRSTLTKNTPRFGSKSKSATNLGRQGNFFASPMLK

[5] = molecular target: DNA (cytosine-5)-methyltransferase 1 (Homo sapiens, UniProt P26358); experiment: DNMT1 methyltransferase inhibitors, confirmation, biochemical, fluorescent molecular beacon (AID 602386); format: functional
DNA (cytosine-5)-methyltransferase 1, sequence (P26358 whole entry): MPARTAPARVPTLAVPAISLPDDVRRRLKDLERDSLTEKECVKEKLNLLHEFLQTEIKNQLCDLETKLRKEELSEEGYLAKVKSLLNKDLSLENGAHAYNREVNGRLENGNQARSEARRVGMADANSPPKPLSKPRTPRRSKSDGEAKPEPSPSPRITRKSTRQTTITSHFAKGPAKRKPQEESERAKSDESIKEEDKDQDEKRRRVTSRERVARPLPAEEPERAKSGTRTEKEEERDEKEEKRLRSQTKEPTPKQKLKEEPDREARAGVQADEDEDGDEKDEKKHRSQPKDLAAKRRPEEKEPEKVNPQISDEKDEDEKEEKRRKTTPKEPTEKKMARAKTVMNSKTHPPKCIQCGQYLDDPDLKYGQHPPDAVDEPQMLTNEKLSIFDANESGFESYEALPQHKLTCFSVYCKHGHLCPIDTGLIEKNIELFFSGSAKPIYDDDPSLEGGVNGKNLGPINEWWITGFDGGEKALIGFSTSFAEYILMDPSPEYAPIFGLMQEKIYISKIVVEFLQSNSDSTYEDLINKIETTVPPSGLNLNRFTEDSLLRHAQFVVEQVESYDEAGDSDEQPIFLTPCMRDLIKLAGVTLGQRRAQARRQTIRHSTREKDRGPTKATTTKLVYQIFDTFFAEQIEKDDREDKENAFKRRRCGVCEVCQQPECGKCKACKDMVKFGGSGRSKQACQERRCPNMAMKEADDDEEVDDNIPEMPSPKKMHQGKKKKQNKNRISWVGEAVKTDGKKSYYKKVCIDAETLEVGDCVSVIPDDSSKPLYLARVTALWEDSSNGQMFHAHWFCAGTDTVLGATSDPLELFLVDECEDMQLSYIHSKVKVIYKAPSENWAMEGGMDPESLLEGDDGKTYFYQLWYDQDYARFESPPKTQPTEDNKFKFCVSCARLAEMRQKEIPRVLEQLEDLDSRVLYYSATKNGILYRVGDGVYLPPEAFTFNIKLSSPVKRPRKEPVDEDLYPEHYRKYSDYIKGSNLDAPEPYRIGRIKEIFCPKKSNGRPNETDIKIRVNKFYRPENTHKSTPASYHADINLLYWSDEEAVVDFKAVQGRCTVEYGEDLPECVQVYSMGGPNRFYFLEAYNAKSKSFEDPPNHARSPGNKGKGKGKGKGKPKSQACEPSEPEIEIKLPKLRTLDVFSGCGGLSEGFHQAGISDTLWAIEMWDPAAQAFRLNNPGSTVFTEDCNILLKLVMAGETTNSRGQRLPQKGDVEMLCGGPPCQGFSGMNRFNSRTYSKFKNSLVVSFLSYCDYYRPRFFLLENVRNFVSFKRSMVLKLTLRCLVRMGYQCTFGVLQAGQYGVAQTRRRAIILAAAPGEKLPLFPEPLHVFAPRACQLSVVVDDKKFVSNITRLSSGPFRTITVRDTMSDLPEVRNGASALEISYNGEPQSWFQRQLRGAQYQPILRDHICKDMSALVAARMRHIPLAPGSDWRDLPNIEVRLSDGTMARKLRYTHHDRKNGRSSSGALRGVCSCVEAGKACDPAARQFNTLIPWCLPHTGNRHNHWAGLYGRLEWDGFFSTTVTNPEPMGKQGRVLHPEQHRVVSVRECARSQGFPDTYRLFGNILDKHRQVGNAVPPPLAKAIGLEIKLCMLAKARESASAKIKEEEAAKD

[6] = molecular target: Adenosylmethionine-8-amino-7-oxononanoate aminotransferase (Mycobacterium tuberculosis, UniProt P9WQ81); experiment: Mycobacterium tuberculosis BioA enzyme inhibitor Measured in Biochemical System Using Plate Reader - 2163-02_Inhibitor_Dose_CherryPick_Activity.; format: functional, Mycobacterium tuberculosis UT205
Adenosylmethionine-8-amino-7-oxononanoate aminotransferase, sequence (P9WQ81 whole entry): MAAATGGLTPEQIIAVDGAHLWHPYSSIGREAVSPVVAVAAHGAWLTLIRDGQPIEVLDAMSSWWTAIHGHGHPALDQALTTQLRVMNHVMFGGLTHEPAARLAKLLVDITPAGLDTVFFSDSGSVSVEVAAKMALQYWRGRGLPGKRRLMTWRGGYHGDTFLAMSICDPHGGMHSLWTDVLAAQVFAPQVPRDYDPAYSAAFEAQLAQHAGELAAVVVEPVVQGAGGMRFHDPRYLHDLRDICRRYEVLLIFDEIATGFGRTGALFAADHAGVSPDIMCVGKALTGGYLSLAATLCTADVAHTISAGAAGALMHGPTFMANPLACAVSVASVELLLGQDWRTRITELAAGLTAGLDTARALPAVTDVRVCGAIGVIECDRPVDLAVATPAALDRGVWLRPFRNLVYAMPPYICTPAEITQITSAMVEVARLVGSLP

[7] = molecular target: T3, Tyrosyl-DNA phosphodiesterase 2 (Homo sapiens, UniProt O95551); experiment: human TDP2 enzyme inhibitors, dose response, biochemical, epi absorbance, IC50 (AID 743297)
T3 sequence (O95551 whole entry): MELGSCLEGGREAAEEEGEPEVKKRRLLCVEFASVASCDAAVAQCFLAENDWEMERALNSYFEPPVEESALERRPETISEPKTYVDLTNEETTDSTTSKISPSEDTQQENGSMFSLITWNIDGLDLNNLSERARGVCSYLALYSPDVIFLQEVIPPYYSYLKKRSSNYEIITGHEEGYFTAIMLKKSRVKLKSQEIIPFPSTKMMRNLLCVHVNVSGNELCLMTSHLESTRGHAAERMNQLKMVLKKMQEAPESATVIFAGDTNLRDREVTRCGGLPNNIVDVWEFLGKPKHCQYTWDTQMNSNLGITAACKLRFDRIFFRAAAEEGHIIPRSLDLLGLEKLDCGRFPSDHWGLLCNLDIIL

Genome polyprotein = Genome polyprotein (dengue virus type 2, UniProt P29990); experiment: Dengue-2 NS5 methyltransferase inhibitors, primary screen, biochemical, confirmation dose response (AID 588689); format: functional
Hexokinase HKDC1 = molecular target: T4, Hexokinase HKDC1 (Homo sapiens, UniProt Q2TB90); experiment: HKDC1 hexokinase inhibitors, dose response, biochemical, W721R variant (AID 504729); format: functional
T4 sequence (Q2TB90 whole entry): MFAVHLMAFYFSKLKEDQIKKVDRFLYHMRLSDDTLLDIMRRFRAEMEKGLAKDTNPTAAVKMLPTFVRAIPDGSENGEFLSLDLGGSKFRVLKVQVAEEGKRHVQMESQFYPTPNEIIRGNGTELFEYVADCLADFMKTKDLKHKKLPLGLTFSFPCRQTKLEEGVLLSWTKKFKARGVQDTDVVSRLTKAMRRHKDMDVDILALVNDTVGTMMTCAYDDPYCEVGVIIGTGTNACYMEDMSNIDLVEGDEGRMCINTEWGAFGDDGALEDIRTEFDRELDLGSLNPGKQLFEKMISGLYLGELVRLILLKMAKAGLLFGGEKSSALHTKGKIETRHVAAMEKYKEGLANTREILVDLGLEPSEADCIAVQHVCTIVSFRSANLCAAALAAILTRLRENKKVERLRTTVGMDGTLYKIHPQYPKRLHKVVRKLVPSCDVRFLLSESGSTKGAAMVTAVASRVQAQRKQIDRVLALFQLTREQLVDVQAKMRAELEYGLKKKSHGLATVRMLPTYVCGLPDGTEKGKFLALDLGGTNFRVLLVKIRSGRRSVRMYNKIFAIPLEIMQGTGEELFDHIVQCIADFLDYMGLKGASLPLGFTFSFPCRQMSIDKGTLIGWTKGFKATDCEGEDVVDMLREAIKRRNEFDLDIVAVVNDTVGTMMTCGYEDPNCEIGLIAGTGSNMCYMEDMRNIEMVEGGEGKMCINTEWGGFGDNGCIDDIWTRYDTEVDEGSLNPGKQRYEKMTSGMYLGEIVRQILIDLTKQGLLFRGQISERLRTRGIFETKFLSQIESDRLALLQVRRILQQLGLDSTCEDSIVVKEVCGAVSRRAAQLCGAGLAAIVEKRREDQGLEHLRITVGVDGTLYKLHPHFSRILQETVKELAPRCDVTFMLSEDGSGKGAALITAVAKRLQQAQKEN

[8] = ARNT/TACC3 interaction disruptors, potency, confirmation, biochemical, AlphaScreen, cherry-picked samples (AID 651703); format: functional, Homo sapiens;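 note: His-tagged ARNT PAS-B domain paired with GST-TACC3 E629A dimer coactivator fragment; potency of inhibitors that break up the complex and lower AlphaScreen signal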
[9] = THP-1 cell cytotoxicity, dose response, cytotoxicity control for non-replicating M. tuberculosis project (AID 489025); format: functional
[10] = Vero E6 cell cytotoxicity, dose response, cytotoxicity control for non-replicating M. tuberculosis project, secondary assay (AID 492998); format: functional, VeroE6; settings: Vero C1008
[11] = growth suppression of beta-catenin-knockout colon cells, dose response, cell-based, HCT116, human colon tumor (AID 1045); format: functional;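 note: HCT116 colon tumor cells with beta catenin knocked out; cells exposed to compound for 60 hours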
cells = format: functional
[12] = growth suppression of PTEN-null colon cells, dose response, cell-based, HCT116 PTEN knockout (AID 1047); format: functional;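 note: HCT116 colon tumor cells with PTEN knocked out; cells exposed to compound for 60 hours before readout; potency for loss of cell viability measured by luminescence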
Beta-galactosidase = Beta-galactosidase (Escherichia coli, UniProt Q8VNN2); experiment: PubChem AID 485352; format: functional
Beta-galactosidase, sequence (Q8VNN2 whole entry): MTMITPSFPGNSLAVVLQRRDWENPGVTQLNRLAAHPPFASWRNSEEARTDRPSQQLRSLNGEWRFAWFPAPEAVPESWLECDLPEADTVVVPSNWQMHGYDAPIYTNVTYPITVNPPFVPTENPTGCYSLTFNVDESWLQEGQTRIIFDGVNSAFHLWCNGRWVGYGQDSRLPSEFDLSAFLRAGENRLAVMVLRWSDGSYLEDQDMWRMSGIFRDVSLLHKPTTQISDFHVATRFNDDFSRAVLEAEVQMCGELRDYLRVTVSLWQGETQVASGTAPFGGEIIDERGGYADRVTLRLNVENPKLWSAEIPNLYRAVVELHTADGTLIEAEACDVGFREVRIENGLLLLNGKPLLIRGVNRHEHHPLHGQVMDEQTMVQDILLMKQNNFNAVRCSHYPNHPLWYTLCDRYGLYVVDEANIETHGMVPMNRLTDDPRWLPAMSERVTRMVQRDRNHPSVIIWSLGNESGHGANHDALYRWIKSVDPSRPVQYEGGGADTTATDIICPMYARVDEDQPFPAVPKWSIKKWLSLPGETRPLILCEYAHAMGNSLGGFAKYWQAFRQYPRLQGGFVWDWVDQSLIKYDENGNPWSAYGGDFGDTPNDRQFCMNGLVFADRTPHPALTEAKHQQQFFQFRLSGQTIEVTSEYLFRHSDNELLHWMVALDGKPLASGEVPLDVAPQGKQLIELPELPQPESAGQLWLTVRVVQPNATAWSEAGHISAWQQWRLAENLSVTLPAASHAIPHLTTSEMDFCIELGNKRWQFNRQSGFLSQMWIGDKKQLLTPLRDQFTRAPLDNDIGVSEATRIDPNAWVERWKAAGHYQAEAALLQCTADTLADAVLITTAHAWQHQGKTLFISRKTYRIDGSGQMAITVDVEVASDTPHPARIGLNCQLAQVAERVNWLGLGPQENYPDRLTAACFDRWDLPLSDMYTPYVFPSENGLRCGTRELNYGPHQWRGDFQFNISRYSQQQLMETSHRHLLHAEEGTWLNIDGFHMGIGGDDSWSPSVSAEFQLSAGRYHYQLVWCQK

[13] = molecular target: T5, Type-1 angiotensin II receptor (Homo sapiens, UniProt P30556); experiment: AT1 receptor antagonists, dose response, selectivity assay for APJ receptor antagonist project, cell-based, uHTS hits (AID 463214); format: functional;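 note: antagonist potency against angiotensin II stimulated AT1 response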
T5 sequence (P30556 whole entry): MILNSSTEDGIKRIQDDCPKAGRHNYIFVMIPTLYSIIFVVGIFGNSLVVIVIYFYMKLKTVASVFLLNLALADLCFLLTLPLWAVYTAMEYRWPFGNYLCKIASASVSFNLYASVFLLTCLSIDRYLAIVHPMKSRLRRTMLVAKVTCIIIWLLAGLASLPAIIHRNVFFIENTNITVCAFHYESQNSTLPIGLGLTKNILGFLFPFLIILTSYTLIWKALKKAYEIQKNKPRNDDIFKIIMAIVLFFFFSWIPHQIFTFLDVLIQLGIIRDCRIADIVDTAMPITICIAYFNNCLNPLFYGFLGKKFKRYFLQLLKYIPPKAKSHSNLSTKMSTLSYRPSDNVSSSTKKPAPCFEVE

[14] = molecular target: Dual specificity protein phosphatase 3 (Homo sapiens, UniProt P51452); experiment: VHR phosphatase inhibition, dose response, selectivity assay for STEP inhibitor project, biochemical (AID 602374); format: functional; settings: read-out: IC50_Mean
Dual specificity protein phosphatase 3, sequence (P51452 whole entry): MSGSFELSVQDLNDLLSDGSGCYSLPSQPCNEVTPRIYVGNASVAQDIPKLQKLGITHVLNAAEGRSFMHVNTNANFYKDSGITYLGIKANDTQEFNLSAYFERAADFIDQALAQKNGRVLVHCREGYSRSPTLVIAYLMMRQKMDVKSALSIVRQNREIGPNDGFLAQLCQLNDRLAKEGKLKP

[15] = molecular target: Tyrosine-protein phosphatase non-receptor type 5 (Homo sapiens, UniProt P54829); experiment: STEP phosphatase inhibitors, confirmation, biochemical, fluorescence intensity, uHTS hits (AID 602372); format: functional; settings: read-out: IC50_Mean
[16] = molecular target: Tyrosine-protein phosphatase non-receptor type 11 (Homo sapiens, UniProt Q06124); experiment: SHP2 phosphatase inhibition, dose response, selectivity assay for STEP inhibitor project, biochemical (AID 602367); format: functional; settings: read-out: IC50_Mean
Tyrosine-protein phosphatase non-receptor type 11, sequence (Q06124 whole entry): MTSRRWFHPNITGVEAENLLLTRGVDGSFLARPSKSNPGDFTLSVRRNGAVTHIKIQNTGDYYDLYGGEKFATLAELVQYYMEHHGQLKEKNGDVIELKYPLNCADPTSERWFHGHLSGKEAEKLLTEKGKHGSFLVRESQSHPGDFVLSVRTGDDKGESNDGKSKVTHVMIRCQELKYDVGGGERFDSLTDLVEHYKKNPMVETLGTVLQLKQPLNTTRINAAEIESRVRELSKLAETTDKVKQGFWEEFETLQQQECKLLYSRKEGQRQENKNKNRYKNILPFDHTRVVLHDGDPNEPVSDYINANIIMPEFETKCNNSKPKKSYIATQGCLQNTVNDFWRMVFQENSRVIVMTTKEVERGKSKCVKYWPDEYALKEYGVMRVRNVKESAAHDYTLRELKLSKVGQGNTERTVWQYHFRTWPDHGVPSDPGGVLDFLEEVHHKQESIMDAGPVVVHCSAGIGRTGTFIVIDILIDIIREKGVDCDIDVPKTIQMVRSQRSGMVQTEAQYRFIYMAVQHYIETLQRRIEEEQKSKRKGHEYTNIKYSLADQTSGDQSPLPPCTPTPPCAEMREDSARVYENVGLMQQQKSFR

Phospholipase D2, sequence (O14939 whole entry): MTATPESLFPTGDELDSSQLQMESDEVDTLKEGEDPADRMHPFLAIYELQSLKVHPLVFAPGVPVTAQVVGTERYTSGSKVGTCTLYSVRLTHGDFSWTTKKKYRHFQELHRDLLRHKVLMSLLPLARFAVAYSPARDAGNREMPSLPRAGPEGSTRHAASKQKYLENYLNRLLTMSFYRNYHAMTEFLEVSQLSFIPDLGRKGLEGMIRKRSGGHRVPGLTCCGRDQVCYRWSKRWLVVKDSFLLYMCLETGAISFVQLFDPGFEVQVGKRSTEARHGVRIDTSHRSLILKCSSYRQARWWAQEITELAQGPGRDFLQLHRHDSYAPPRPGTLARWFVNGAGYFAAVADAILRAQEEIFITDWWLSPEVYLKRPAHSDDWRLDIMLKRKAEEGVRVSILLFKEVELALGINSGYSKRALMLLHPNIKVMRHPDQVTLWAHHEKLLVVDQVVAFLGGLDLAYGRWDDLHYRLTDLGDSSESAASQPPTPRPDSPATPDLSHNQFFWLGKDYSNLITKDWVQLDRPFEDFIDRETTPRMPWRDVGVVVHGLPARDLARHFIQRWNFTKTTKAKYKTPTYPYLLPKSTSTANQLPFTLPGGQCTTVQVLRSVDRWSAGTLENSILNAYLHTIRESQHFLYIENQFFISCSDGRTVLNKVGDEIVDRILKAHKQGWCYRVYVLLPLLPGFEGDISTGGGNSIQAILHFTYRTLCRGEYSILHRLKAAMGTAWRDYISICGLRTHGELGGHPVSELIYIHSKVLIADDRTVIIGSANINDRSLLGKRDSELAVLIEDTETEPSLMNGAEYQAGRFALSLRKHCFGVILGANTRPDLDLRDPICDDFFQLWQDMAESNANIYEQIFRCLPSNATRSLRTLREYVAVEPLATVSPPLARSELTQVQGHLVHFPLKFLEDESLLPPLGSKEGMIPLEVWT

O=C(NCCN1CCC(n2c(=O)[nH]c3ccccc32)CC1)NCc1cccc(F)c1
IC50 (Phospholipase D2): 1.8 µM (active)
IC50 (Phospholipase D1): 0.107 µM (active)

O=C(CSc1ccc2nnc(-c3ccccn3)n2n1)NCc1ccco1
AC50 [1]: 99 µM (active)

O=C1C(Cl)=C(Nc2ccc3c[nH]nc3c2)C(=O)c2ccccc21
CC50 (Vero): 9.81 µM (active)
CC50 [2]: 2.49 µM (active)
EC50 [3]: 0.928 µM (active)
EC50 (Streptococcus): 15.1 µM (active)
AC50 (INS1): 3.56 µM (active)

O=C(c1ccc(Cl)cc1)N(CCN1CCC(n2c(=O)[nH]c3ccccc32)CC1)C(=O)c1ccc(Cl)cc1
IC50 (Phospholipase D2): 2.7 µM (active)
IC50 (Phospholipase D1): 0.21 µM (active)

O=C(NCCN1CCC2(CC1)C(=O)NCN2c1cccc(Br)c1)c1ccc2ccccc2c1
IC50 (Phospholipase D2): 0.68 µM (active)
IC50 (Phospholipase D1): 4.6 µM (active)

COc1cc(/C=C/C=C2/CC/C(=C/C=C/c3ccc(O)c(OC)c3)C2=O)ccc1O
IC50 [4]: 99.4 µM (active)
CC50 [2]: 24.1 µM (active)
IC50 [5]: 8.22 µM (active)

Cc1cccc(-c2nnc(SCC#N)n2-c2ccccc2)c1
AC50 [6]: 3.22 µM (active)

Cc1ccc(-n2c3nc(=O)[nH]c(=O)c-3cc3cc([N+](=O)[O-])ccc32)cc1
CC50 (Vero): > 40 µM (active)
IC50 [7]: > 128 µM (inactive)
IC50 (Genome polyprotein): 22.9 µM (active)
IC50 (Hexokinase HKDC1): 10.3 µM (active)

CC(C)n1c(N2CCN(C(=O)c3cccs3)CC2)nc2ccccc21
AC50 [6]: 10.6 µM (active)

CCOc1ccc(-c2cnc(N)n2C)cc1
AC50 [8]: 93.9 µM (active)

O=C1c2cccc3c([N+](=O)[O-])ccc(c23)C(=O)N1c1ccc(Cl)cn1
CC50 [9]: 1.34 µM (active)
CC50 [10]: 10.1 µM (active)
EC50 [11]: 0.905 µM (active)
IC50 (cells): 8.7 µM (active)
EC50 [12]: 1.58 µM (active)
EC50 (Beta-galactosidase): > 40 µM (inactive)
IC50 [13]: 15.5 µM (active)

COc1ccccc1Nc1ccc([N+](=O)[O-])cc1N
IC50 [14]: 3.2 µM (active)
IC50 [15]: 34.5 µM (inactive)
IC50 [16]: 8.01 µM (active)
